The conditions of data set [1]: 300 mg twice daily.
For data set [2] the following is noted: cited from earlier work.
The nature of data set [3]: clinical. Particulars: human, plasma, oral, 300 mg, 300 mg twice daily; for AUC: ABC AUC; for Cmax: ABC Cmax; for Vd/F: ABC Vd/F (volume of distribution); for half-life: ABC half-life.
Data set [4] is described as follows: Intracellular triphosphate. The class given is in vivo, human. The note with it: median ratio, 4 h after dose vs predose; all subjects.
Data set [5] has as its target HIV-1 reverse transcriptase. Particulars: cited from earlier work.
The conditions of data set [6]: cited from earlier work. The source holds these as a separate data set.

“And” between values parts separate entries of the source, which are not always exact repeats. Equal values may be shown once. Read-outs that look alike come from different tables or passages of the source.

As usually defined, the AUC is concentration integrated over time. Broadly, the Cmax is the peak of the concentration-time curve. What is called Vd/F is the volume of distribution divided by bioavailability. The half-life is the time needed for the level to fall by half in the phase considered. As for `Nc1nc(NC2CC2)c2ncn([C@H]3C=C[C@@H](CO)C3)c2n1` [ABC, abacavir], the “ABC CL/F (apparent oral clearance)” value was 47.47 (19.52) l/h in data set [1] (mean (SD), <18 years (n = 15)); 45.44 (16.87) l/h in data set [1] (mean (SD), Total (n = 30)); 43.40 (14.13) l/h in data set [1] (mean (SD), ≥18 years (n = 15)); 42.80 L/h in data set [1] (median, <18 years (n = 15)); 44.70 L/h in data set [1] (median, Total (n = 30)); 45.50 L/h in data set [1] (median, ≥18 years (n = 15)). Also, the “ABC CL/F adjusted for body surface area” value is given as 481.60 (192.62) ml/min/m^2 in data set [1] (mean (SD), <18 years (n = 15)); 437.77 (168.51) ml/min/m^2 in data set [1] (mean (SD), Total (n = 30)); 393.93 (132.66) ml/min/m^2 in data set [1] (mean (SD), ≥18 years (n = 15)); 382.00 ml/min/m^2 in data set [1] (median, <18 years (n = 15)); 390.50 ml/min/m^2 in data set [1] (median, Total (n = 30)); 399.00 ml/min/m^2 in data set [1] (median, ≥18 years (n = 15)). The “ABC CL/F adjusted for weight” value in data set [1] (mean (SD), <18 years (n = 15)) is given as 13.03 (5.31) ml/min/kg; in data set [1] (mean (SD), Total (n = 30)) it was 11.73 (4.84) ml/min/kg. Besides, the “observed clearance seen in adults (reference value for hypothesis test on AUC)” value in data set [2] (adults, reference not printed at the place) was 6000 ng·h/mL. For the same compound, in data set [2] (older adults, 300 mg twice daily (~4 mg/kg)), the “abacavir steady-state AUC” value was 5000 to 6000 ng·h/mL. In addition, the “abacavir weight-adjusted apparent oral clearance” value in data set [2] (translated from 0.86 l/min for a 70-kg adult, ref 12 (McDowell et al.)) is 12.3 mL/min/kg. Besides, the AUC stood at 7350 ng·h/mL in data set [3] (mean (SD), <18 years (n = 15)); 7480 ng·h/mL in data set [3] (mean (SD), Total (n = 30)); 7610 ng·h/mL in data set [3] (mean (SD), ≥18 years (n = 15)); 7010 ng·h/mL in data set [3] (median, <18 years (n = 15)); 6720 ng·h/mL in data set [3] (median, Total (n = 30)); 6590 ng·h/mL in data set [3] (median, ≥18 years (n = 15)). Moreover, the highest concentration (Cmax) worked out at 2790 ng/mL in data set [3] (mean (SD), <18 years (n = 15)); 2860 ng/mL in data set [3] (mean (SD), Total (n = 30)); 2940 ng/mL in data set [3] (mean (SD), ≥18 years (n = 15)); 2580 ng/mL in data set [3] (median, <18 years (n = 15)); 2620 ng/mL in data set [3] (median, Total (n = 30)); 2740 ng/mL in data set [3] (median, ≥18 years (n = 15)). The Vd/F in data set [3] (mean (SD), <18 years (n = 15)) was 82.9 L and 1.35 L/kg; in data set [3] (mean (SD), Total (n = 30)) it was 77.8 L and 1.19 L/kg; in data set [3] (mean (SD), ≥18 years (n = 15)) it was 72.8 L and 1.04 L/kg; in data set [3] (median, <18 years (n = 15)) it was 67.1 L and 0.9 L/kg; in data set [3] (median, Total (n = 30)), 71.5 L and 1.05 L/kg; in data set [3] (median, ≥18 years (n = 15)) it was 73.5 L and 1.1 L/kg. The half-life in data set [3] (mean (SD), <18 years (n = 15)) was 1.23 h; in data set [3] (mean (SD), Total (n = 30)), 1.19 h; in data set [3] (mean (SD), ≥18 years (n = 15)), 1.14 h; in data set [3] (median, <18 years (n = 15)), 1.22 h; in data set [3] (median, Total (n = 30)), 1.23 h; in data set [3] (median, ≥18 years (n = 15)), 1.34 h.
For orientation: Ki means a dissociation constant, usually derived from enzyme kinetics or from competition with a known ligand. Regarding `Nc1nc(=O)c2ncn([C@H]3C=C[C@@H](COP(=O)(O)OP(=O)(O)OP(=O)(O)O)C3)c2[nH]1` [Carbovir-TP, carbovir-triphosphate], the “C4/C0 ratio of intracellular TP concentrations” value (from here on “C4/C0 ratio”) in data set [4] was 1.89 and 1.9. In addition, in data set [5] (equivalent of 21 nmol/l), the “carbovir-TP reverse transcriptase Ki expressed as intracellular amount” value is ~ 10 fmol/10^6 cells. Further, the inhibitory constant (Ki) in data set [5] (read-out: carbovir-TP reverse transcriptase Ki, ex vitro) is 21 nM. The “intracellular carbovir-TP concentrations” value in data set [6] (range reported from previous studies) is recorded as 4-290 fmol/10^6 cells.
Turning to `Nc1ccn([C@@H]2CS[C@H](COP(=O)(O)OP(=O)(O)OP(=O)(O)O)O2)c(=O)n1` [Lamivudine-TP, lamivudine triphosphate], the “C4/C0 ratio” value in data set [4] is 1.31 and 1.3. Also, the “intracellular lamivudine-TP average concentrations” value in data set [6] (range of averages in previous studies) is 1.7-8.6 pmol/10^6 cells.
In the case of `Cc1cn([C@H]2C[C@H](N=[N+]=[N-])[C@@H](CO[P@](=O)(O)O[P@](=O)(O)OP(=O)(O)O)O2)c(=O)[nH]c1=O` [Zidovudine-TP, zidovudine triphosphate], the “C4/C0 ratio” value in data set [4] is listed as 1.95. In addition, the “intracellular zidovudine-TP concentrations” value in data set [6] (range seen in previous studies) is given as 6.3-58 fmol/10^6 cells.

The values above are taken from paper PMC2767189 (Clinical Pharmacology and Therapeutics, 2008).
